Drawing on patent publication US20080146811A1, “Compounds and Methods For Treatment of Thrombosis” (priority 2004, published 2008), this text covers IC50 for 29 compounds.

What all share (assay type): biochemical
The target in assay [1] is factor XIa (Homo sapiens, UniProt P03951). Briefly: In vitro inhibition of factor XIa.
Assay [2] concerns the target factor Xa (Homo sapiens, UniProt P00742). Put plainly: In vitro inhibition of factor Xa.
Assay [3] addresses thrombin (Homo sapiens, UniProt P00734). Briefly: In vitro inhibition of thrombin.

Sequence of factor Xa (P00742 235-488 limits assumed): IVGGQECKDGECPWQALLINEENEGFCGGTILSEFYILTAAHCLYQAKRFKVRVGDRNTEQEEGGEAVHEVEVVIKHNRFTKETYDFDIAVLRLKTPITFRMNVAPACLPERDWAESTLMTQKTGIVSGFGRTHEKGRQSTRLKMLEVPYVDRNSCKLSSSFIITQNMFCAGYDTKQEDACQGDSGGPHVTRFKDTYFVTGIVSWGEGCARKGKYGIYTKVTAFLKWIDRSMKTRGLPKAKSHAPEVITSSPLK
Sequence of factor Xa (P00742 41-179 partner limits assumed): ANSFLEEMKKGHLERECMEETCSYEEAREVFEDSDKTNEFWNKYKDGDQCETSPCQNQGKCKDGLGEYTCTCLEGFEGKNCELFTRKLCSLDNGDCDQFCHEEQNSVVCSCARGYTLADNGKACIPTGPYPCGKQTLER
Sequence of factor XIa (P03951 388-625 limits assumed): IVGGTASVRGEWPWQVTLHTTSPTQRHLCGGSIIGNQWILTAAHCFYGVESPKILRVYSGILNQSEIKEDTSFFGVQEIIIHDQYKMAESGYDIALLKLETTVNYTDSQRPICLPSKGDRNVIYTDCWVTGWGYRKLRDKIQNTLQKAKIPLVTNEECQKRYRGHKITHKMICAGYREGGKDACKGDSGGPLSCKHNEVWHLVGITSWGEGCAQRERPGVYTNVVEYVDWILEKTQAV

The IC50 is the concentration at which inhibition is half-maximal. A higher IC50 goes with a need for much substance. Consider `Cc1c(O)cccc1NC(=O)Cn1cc(C(=N)N)c2ccccc21` [Compound 1], for which the values for the IC50 in assay [1], in assay [2] and in assay [3] were 47.9 µM, 167 µM and greater than 200 µM, respectively. For `C[C@@H](CNC(=O)Cn1cc(C(=N)N)c2ccccc21)c1ccccc1` [Compound 5], in that order: 37.1 µM, 283 µM and greater than 200 µM. Take `N=C(N)c1cn(CC(=O)Nc2cccnc2)c2c(Br)cccc12` [Compound 8]: the IC50 was 0.62 µM in assay [1], 170 µM in assay [2] and greater than 200 µM in assay [3]. `N=C(N)c1cn(CC(=O)Nc2cc(F)cc(F)c2)c2c(Br)cccc12` [Compound 12] had an IC50 in assay [1] of 2.51 µM. With `N=C(N)c1cn(CC(=O)Nc2ccc3ncccc3c2)c2c(Br)cccc12` [Compound 34], in assay [1], half-maximal inhibition (IC50) required 1.39 µM. On the same count and under the same terms, then `N=C(N)c1cn(CC(=O)Nc2cccnc2)c2cc(CCC(N)=O)ccc12` [Compound 40], with 127 µM; and `N=C(N)c1cn(CC(=O)Nc2cccnc2)c2c(-c3cccc(O)c3)cccc12` [Compound 46], with 8.09 µM. As to `N=C(N)c1cn(CC(=O)Nc2cccnc2)c2c(/C=C/C(N)=O)cccc12` [Compound 47], the IC50 in assay [1] is 1.77 µM; in assay [3] it was greater than 200 µM. Compound `N=C(N)c1cn(CC(=O)Nc2cccnc2)c2c(/C=C/C(=O)Nc3cccnc3)cccc12` [Compound 54] showed an IC50 in assay [1] of 1.99 µM. As to `COC(=O)c1ccc(NC(=O)Cn2cc(C(=N)N)c3cccc(/C=C/C(=O)NC4Cc5ccccc5C4)c32)cc1` [Compound 58], in assay [1], the IC50 amounted to 3.23 µM.

Turning to `COC(=O)c1ccc(NC(=O)Cn2cc(C(=N)N)c3cccc(/C=C/C(=O)N4CCc5cc(O)c(O)cc5C4)c32)cc1` [Compound 64], the IC50 in assay [1] amounted to 1.96 µM. For the compound `N=C(N)c1cn(CC(=O)Nc2ccc(C(=O)O)cc2)c2c(C=CC(=O)NC(Cc3ccc(O)cc3)C(=O)O)cccc12` (stereo not shown) [Compound 70], the IC50 is 0.042 µM in assay [1], greater than 2 µM in assay [2] and greater than 200 µM in assay [3]. For `N=C(N)c1cn(CC(=O)Nc2ccc(C(=O)O)cc2)c2c(/C=C/C(=O)N[C@H](C(=O)O)c3ccccc3)cccc12` [Compound 77] the same measures were 0.093 µM, 67.8 µM and greater than 200 µM. On to `N=C(N)c1cn(CC(=O)Nc2cccnc2)c2c(C(N)=O)cccc12` [Compound 84], for which, in assay [1], the IC50 was 1.47 µM. Turning to `CCOC(=O)C1CCCN(C(=O)Cn2cc(C(=N)N)c3cccc(C(=O)N4CCCC(C(=O)OCC)C4)c32)C1` (stereo not shown) [Compound 91], 3.81 µM corresponded to half-maximal inhibition in assay [1] (IC50).

With `COC(=O)c1ccc(NC(=O)Cn2cc(C(=N)N)c3cccc(C(=O)NCc4ccc(O)c(O)c4)c32)cc1` [Compound 95], the results for the concentration for half-maximal inhibition (IC50) in assay [1], in assay [2] and in assay [3] were 0.87 µM, 82 µM and 4.2 µM, respectively. In the case of `COC(=O)[C@H](CC(C)C)NC(=O)c1cccc2c(C(=N)N)cn(CC(=O)Nc3cccnc3)c12` [Compound 98], the figures for the IC50 in assay [1] and in assay [3] were 0.1 µM and 3.78 µM, respectively. For `N=C(N)c1cn(C(=CC(=O)N2CCNCC2)c2ccccc2)c2ccccc12` [Compound 101], in assay [1], the IC50 is 6.27 µM.

`N=C(N)c1cn(C(=CC(=O)N2CCCC(C(=O)O)C2)c2ccccc2)c2ccccc12` (stereo not shown) [Compound 111] returned an IC50 in assay [1] of 13.7 µM. In the case of `COC(=O)c1ccc(Br)cc1-n1cc(C(=N)N)c2ccccc21` [Compound 131], the IC50 in assay [1] came to 1.36 µM; in assay [2], 35.1 µM; in assay [3], 60.2 µM.

Consider `COC(=O)c1ccc(-c2cccc(O)c2)cc1-n1cc(C(=N)N)c2ccccc21` [Compound 135], for which the IC50 is 1.62 µM in assay [1], 15.2 µM in assay [2] and 43.7 µM in assay [3]. For `COC(=O)c1ccc(-c2cccnc2)cc1-n1cc(C(=N)N)c2ccccc21` [Compound 139], in that order: 3.8 µM, 9.65 µM and 73.1 µM. With `COC(=O)c1ccc(NC(=O)c2cccnc2)cc1-n1cc(C(=N)N)c2ccccc21` [Compound 142], in assay [1], inhibition was half-maximal at 11.3 µM (IC50). Still for that read-out and setting: then `N=C(N)c1cn(-c2cc(Br)ccc2C(=O)N2CCNCC2)c2ccccc12` [Compound 144], with 81.7 µM.

`CON(C)C(=O)c1ccc(Br)cc1-n1cc(C(=N)N)c2ccccc21` [Compound 148] returned an IC50 in assay [1] of 134 µM. The same measure, in the same setting: then `N=C(N)c1cn(-c2cc(Br)ccc2C(=O)NCc2ccccc2)c2ccccc12` [Compound 150], with 280 µM. `N=C(N)c1cn(-c2ccccc2[N+](=O)[O-])c2ccccc12` [Compound 151]: the values for the IC50 in assay [1], in assay [2] and in assay [3] were 4.15 µM, 145 µM and 224 µM, respectively. For `COC(=O)c1cccc(Oc2ccc([N+](=O)[O-])c(-n3cc(C(=N)N)c4ccccc43)c2)c1` [Compound 154], in that order: 3 µM, 54.7 µM and 20.2 µM. For `N=C(N)c1cn(-c2cc(Cl)ccc2[N+](=O)[O-])c2c(C(=O)Nc3cccnc3)cccc12` [Compound 158] the same measures were 1.24 µM, 80.8 µM and greater than 200 µM.
